Data taken from patent publication US10945989B2, “Perinatal treatment with a flavonoid agonist of the TrkB receptor for BDNF rescues neurogenesis and behavior in the Ts65Dn mouse model of DS” (ALMA MATER STUDIORUM—Universita' di Bologna, priority 2017, dated 2021).

System: synaptophysin (SYN)
Assay: Western blot of hippocampal homogenates: synaptophysin
Type: in vivo, mouse
Procedure: Euploid and Ts65Dn mice received a daily subcutaneous injection (at 9-10 am) of 7,8-DHF (5.0 mg/kg in vehicle: PBS with 1% DMSO) or vehicle from postnatal day 3 (P3) to postnatal day 15. This timing was chosen because it corresponds to that previously used to test the effects of fluoxetine and other pharmacotherapies in the neonate Ts65Dn mouse (Bianchi et al., 2010b; Giacomini et al., 2015; Stagni et al., 2016). Mice that received 7,8-DHF will be called “treated mice” (treated euploid mice: n=25; treated Ts65Dn mice: n=15). Mice that received the vehicle will be called “untreated mice” (untreated euploid mice: n=35; untreated Ts65Dn mice: n=21). […] The brains were excised and cut along the midline. The left hemisphere of a group of mice was fixed by immersion in PFA 4% and frozen, and the left hemisphere of another group of mice was used for Golgi staining. […]
In homogenates of the hippocampal formation of P15 mice, total proteins were obtained as previously described (Trazzi et al., 2011) and the levels of the following proteins were evaluated: BDNF, TrkB full length (TrkB-FL), phosphorylated TrkB (p-TrkB), the truncated form 1 of the TrkB receptor (TrkB-T1), phosphorylated ERK1 (p-ERK1), phosphorylated ERK2 (p-ERK2), ERK1, ERK2, synaptophysin (SYN), GAPDH and α-Tubulin using the antibodies reported in Table 1. […]

## O=c1cc(-c2ccccc2)oc2c(O)c(O)ccc12 [7,8-DHF, 7,8-dihydroxyflavone]
P15 Ts65Dn mice, became similar to untreated euploid mice
  SYN levels in the hippocampus: increased SYN levels
P15 euploid mice, vs untreated counterparts
  SYN levels in the hippocampus: increase in SYN levels
